What follows are compounds tested against T1, h-11βHSD1 (Homo sapiens, UniProt P28845) (assay: 11βHSD1 enzyme assay (SPA, 3H-cortisone to 3H-cortisol)). Conditions: extract of yeast transformed with h-11βHSD1; 120 nM 3H-cortisone, 4 mM β-NADPH, 60 min at 30° C.
T1 construct: made in house
Format: biochemical
Experimental: ^3H-cortisone and anti-rabbit Ig coated scintillation proximity assay (SPA) beads were purchased from Amersham Pharmacia Biotech, β-NADPH was from Sigma and rabbit anti-cortisol antibodies were from Fitzgerald. An extract of yeast transformed with h-11βHSD1 (Hutt et al., FEBS Lett, 441, 25 (1998)) was used as the source of enzyme. The test compounds were dissolved in DMSO (10 mM). All dilutions were performed in a buffer containing 50 mM TRIS-HCl (Sigma Chemical Co), 4 mM EDTA (Sigma Chemical Co), 0.1% BSA (Sigma Chemical Co), 0.01% Tween-20 (Sigma Chemical Co) and 0.005% bacitracin (Novo Nordisk A/S), pH=7.4. Optiplate 96 wells plates were supplied by Packard. The amount of ^3H-cortisol bound to the SPA beads was measured on TopCount NXT, Packard.
h-11βHSD1, 120 nM ^3H-cortisone, 4 mM β-NADPH, antibody (1:200), serial dilutions of test compound and SPA particles (2 mg/well) were added to the wells. The reaction was initiated by mixing the different components and was allowed to proceed under shaking for 60 min at 30° C. The reaction was stopped be the addition of 10 fold excess of a stopping buffer containing 500 μM carbenoxolone and 1 μM cortisone. Data was analysed using GraphPad Prism software.

T1 sequence (P28845 whole entry): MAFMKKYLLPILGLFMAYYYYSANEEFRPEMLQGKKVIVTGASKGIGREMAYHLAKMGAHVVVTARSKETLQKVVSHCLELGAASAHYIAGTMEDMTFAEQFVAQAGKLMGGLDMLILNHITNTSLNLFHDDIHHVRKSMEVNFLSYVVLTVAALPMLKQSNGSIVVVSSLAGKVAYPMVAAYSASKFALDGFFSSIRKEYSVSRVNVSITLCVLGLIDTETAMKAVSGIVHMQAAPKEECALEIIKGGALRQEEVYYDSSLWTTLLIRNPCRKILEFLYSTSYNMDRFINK

IC50 [µM]	Compound
0.274	Cn1c2ccccc2c2cc(C(=O)N3CC4CC(O)C3C4)ccc21 (centres unmarked) [Example 9, (6-Hydroxy-2-aza-bicyclo[2.2.1]hept-2-yl)-(9-methyl-9H-carbazol-3-yl)-methanone]
0.041	CN(C(=O)c1ccc2c(c1)c1ccccc1n2C)C1C2CC3CC1CC(O)(C3)C2 (centres unmarked) [Example 12, 9-Methyl-9H-carbazole-3-carboxylic acid (5-hydroxy-adamantan-2-yl)-methyl-amide]
0.076	CN(C(=O)c1ccc2[nH]c3ccccc3c2c1)C1C2CC3CC1CC(O)(C3)C2 (centres unmarked) [Example 13, 9H-Carbazole-3-carboxylic acid (5-hydroxy-adamantan-2-yl)-methyl-amide]
0.064	Cn1c2ccccc2c2cc(C(=O)N3CC4CC3CC4O)ccc21 (centres unmarked) [Example 5, (5-Hydroxy-2-aza-bicyclo[2.2.1]hept-2-yl)-(9-methyl-9H-carbazol-3-yl)-methanone]
0.36	Cn1c2ccccc2c2cc(C(=O)N3CC4CC(O)CC3C4)ccc21 (centres unmarked) [Example 7, (3-Hydroxy-6-aza-bicyclo[3.2.1]oct-6-yl)-(9-methyl-9H-carbazol-3-yl)-methanone]
1.03	O=C(c1ccc2[nH]c3ccccc3c2c1)N1CC2CC(O)C1C2 (centres unmarked) [Example 10, (9H-Carbazol-3-yl)-(6-hydroxy-2-aza-bicyclo[2.2.1]hept-2-yl)-methanone]
0.029	O=C(NC1C2CC3CC1CC(O)(C3)C2)c1ccc2[nH]c3ccccc3c2c1 (centres unmarked) [Example 11, 9H-Carbazole-3-carboxylic acid (5-hydroxy-adamantan-2-yl)-amide]

Compound	IC50 [µM]
O=C(c1ccc2c(c1)-c1ccccc1C2)N1C2CCC1CC(O)C2 (single isomer, unassigned) [Example 1, (9H-Fluoren-3-yl)-(cis 3-hydroxy-8-aza-bicyclo[3.2.1]oct-8-yl)-methanone]	0.008
O=C(c1ccc2c(c1)-c1ccccc1C2)N1C2CCC1CC(O)C2 (single isomer, unassigned) [Example 2, (9H-Fluoren-3-yl)-(trans 3-hydroxy-8-aza-bicyclo[3.2.1]oct-8-yl)-methanone]	0.246
O=C(c1ccc2[nH]c3ccccc3c2c1)N1C2CCC1CC(O)C2 (centres unmarked) [Example 4, (9H-Carbazol-3-yl)-(3-hydroxy-8-aza-bicyclo[3.2.1]oct-8-yl)-methanone]	0.03
Cn1c2ccccc2c2cc(C(=O)N3C4CCC3CC(O)C4)ccc21 (centres unmarked) [Example 3, (3-Hydroxy-8-aza-bicyclo[3.2.1]oct-8-yl)-(9-methyl-9H-carbazol-3-yl)-methanone]	0.006
